In patent US11986512B2, “Compositions and methods for cancer therapy” (Thetis Pharmaceuticals LLC, priority 2021, dated 2024):

Columns and labels:
Type in all cases: in vivo, C57BL/6J male mice
KPC cells = test: Orthotopic KPC model of pancreatic cancer, survival
Experimental: To expand our understanding of less than daily (LTD) dosing of bis RvE1 Mg-di-lysinate as a cancer therapy that could be used in combination with chemotherapy, bis RvE1 Mg-di-lysinate (Compound 1) was investigated in the orthotopic KPC model of pancreatic cancer. A total of fifteen (15) C57BL/6J male mice were implanted orthotopically with 5×10e5 living KPC cells into the pancreas. The mice were randomized (n=7-8) to treatment with bis RvE1 Mg-di-lysinate (300 ug/kg, SC, Q6D) with or without gemcitabine (50 mg/kg, IP, Q3D, up to 6 doses) one day after tumor cell implantation.

Panc2-H7 model = Panc2-H7 model with or without CD8 neutralizing antibody
Experimental: Based on the findings with bis RvE1 Mg-di-lysinate administered in combination with anti-PD1 in two different tumor models (i.e., Panc2-H7 and LLC), daily (QD) and weekly (Q7D) dosing of bis RvE1 Mg-di-lysinate was investigated in the Panc2-H7 model, with and without an antibody that depletes CD8+ T-cells, which play a major role in the antitumor immune response of immune checkpoint inhibitors. A total of thirty (30) C57BL/6J male mice were injected subcutaneously with 1×10e6 living […]. Once tumors reached 220-240 mm^3 in size based on mean tumor volume per cohort, the mice were randomized (n=6 per group) to treatment with vehicle, bis RvE1 Mg-di-lysinate (300 ug/kg, SC, QD or Q7D), with or without CD8 neutralizing antibody (200 ug IP Q3D). All mice were sacrificed on day 20 when the average tumor size of the placebo group exceeded 2,000 mm^3.

Panc2-H7 cells = test: Panc2-H7 model, daily (QD) versus weekly (Q7D) dosing; details: SC
Experimental: (§1) A representative compound of Formula IV, RvE1 magnesium dilysinate, was tested for efficacy in several mouse models of cancer, including the Panc2-H7 model of pancreatic cancer, the Lewis lung carcinoma (LLC) model, the MC38 model of colorectal cancer, and the B16F10 model of melanoma. These models are well established, highly tumorigenic syngeneic models in which murine cancer cell lines are injected subcutaneously (SC) into the dorsum of C57BL/6J mice. If left untreated, these tumors grow rapidly and lead to death or euthanasia, per protocol. As detailed below in Examples 1-9 and the accompanying figures, bis RvE1 Mg-di-lysinate (Compound 1) was unexpectedly effective as an anti-cancer agent in each of these model systems when administered in a less than daily (LTD) dosing regimen. […] Without being bound by any theory, the surprising efficacy of LTD dosing of resolvins in the cancer model systems described here may be the result of durable effects on the tumor microenvironment including changes in immune cell phenotype, vascularization, stromal phenotype, and antigen presentation, as well as durable effects on the T-cell compartment such as T-cell priming and increased tumor-infiltrating lymphocytes.
Based on the previous findings in the MC38 colorectal cancer model with less than daily (LTD) dosing, a study in the Panc2-H7 model was conducted to assess the efficacy of LTD dosing of bis RvE1 Mg-di-lysinate in a different tumor model. A total of forty (40) C57BL/6J male mice were injected subcutaneously with 1×10e6 living Panc2-H7 cells. Once tumors reached 160-320 mm^3 in size, the mice were randomized (n=8 per group) to treatment with vehicle or SC injection with bis RvE1 Mg-di-lysinate at 30 ug/kg and 300 ug/kg (QD, Q7D).

Panc2 cells = test: Panc2-H7 model with or without anti-CTLA4
Experimental: To further corroborate the findings with weekly dosing of bis RvE1 Mg-di-lysinate and its efficacy in combination with immune checkpoint inhibitors (ICI), another study was conducted in the Panc2-H7 model with a different ICI. A total of twenty-four (24) C57BL/6J male mice were injected subcutaneously with 1×10e6 living Panc2 cells. Once tumors reached 200 mm^3 in size based on mean tumor volume per cohort, the mice were randomized (n=8 per group) to treatment with vehicle, bis RvE1 Mg-di-lysinate (300 ug/kg, SC, Q7D) and bis RvE1 Mg-di-lysinate+anti-CTLA-4 (4 mg/kg, i.p, first dose; 2 mg/kg i.p, Q3D following the first dose).

B16F10 cells = test: B16F10 model of melanoma, with anti-PD1 and anti-CTLA4
Experimental: as §1
Based on the finding of increased efficacy with bis RvE1 Mg-di-lysinate administered in combination with anti-PD1 monotherapy and anti-CTLA4 monotherapy, a study was conducted to investigate the efficacy of less than daily (LTD) bis RvE1 Mg-di-lysinate combined with both anti-PD1 and anti-CTLA4 in the B16F10 model of melanoma. […] See Perez-Ruiz E, et al. Nature. 2019; 569(7756):428-432. Thus, this initial study with ICI dual therapy was designed to investigate whether use of bis RvE1 Mg-di-lysinate with the ICI dual therapy could enhance efficacy, which may offer the opportunity to reduce the dose of the ICI components of the regimen without loss of efficacy. A total of sixty-four (64) C57BL/6J male mice were injected subcutaneously with 1×10e6 living B16F10 cells in the dorsum. When tumors reached a mean tumor volume of approximately 130 mme3, the mice were randomized (n=8 per group) to treatment with vehicle, bis RvE1 Mg-di-lysinate (300 ug/kg, SC, Q6D), anti-PD1 (8 mg/kg, i.p., Q3D) or anti-CTLA-4 (4 mg/kg, Q3D). The double combinations of bis RvE1 Mg-di-lysinate and anti-CTLA-4 or anti-PD1, and anti-PD1 with anti-CTLA-4, as well as the triple combination of bis RvE1 Mg-di-lysinate, anti-CTLA-4 and anti-PD1 were also investigated. All combination arms used the same dosing regimens as the individual monotherapies. The mice were sacrificed on day 12 per protocol when the mean tumor of the vehicle group reached approximately 2,000 mm^3. […] This is clinically relevant for melanoma patients receiving anti-PD1 monotherapy, which is used when the side effects of ICI dual therapy are not tolerated.

[1] = triple therapy (bis RvE1 Mg-di-lysinate + anti-CTLA-4 + anti-PD1), p<0.001

Q: With `CC[C@@H](O)/C=C/C=C\C[C@@H](O)/C=C/C=C/C=C\[C@@H](O)CCCC(=O)O` [bis RvE1 Mg-di-lysinate] as the molecule, how does the mean survival (KPC cells; bis RvE1 Mg-di-lysinate 300 ug/kg SC Q6D in combination with gemcitabine 50 mg/kg IP Q3D up to 6 doses) read?
A: 129 days

Q: What about the “mice alive as of the last observation (day 250)” value (KPC cells; bis RvE1 Mg-di-lysinate + gemcitabine combination group, three of the seven mice) of the same molecule?
A: 43%

Q: And the “increase in survival, combination versus gemcitabine monotherapy” value (KPC cells; bis RvE1 Mg-di-lysinate + gemcitabine, p<0.05)?
A: four-fold increase in survival

Q: And the “efficacy of weekly (Q7D) relative to daily (QD) dosing” value (Panc2-H7 model; 300 ug/kg SC, mice not receiving the neutralizing antibody)?
A: comparable and possibly superior efficacy relative to daily (QD) dosing

Q: And the “tumor volume over time” value (Panc2-H7 model; 300 ug/kg, SC, Q7D, without CD8 neutralizing antibody, p<0.01 vs placebo and vs same regimen + CD8 depletion)?
A: significant inhibition compared to placebo control

Q: What about the “tumor volume (Day 20 vs Day 0)” value (Panc2-H7 cells; 30 ug/kg, Q7D) of the same molecule?
A: inhibition relative to placebo control

Q: And the “tumor volume (Day 20 vs Day 0)” value (Panc2-H7 cells; 30 ug/kg, QD)?
A: inhibition relative to placebo control

Q: And the “tumor volume (Day 20 vs Day 0)” value (Panc2-H7 cells; 300 ug/kg, Q7D, P<0.05 vs placebo control)?
A: greatest inhibition

Q: What about the “tumor volume (Day 20 vs Day 0)” value (Panc2-H7 cells; 300 ug/kg, QD) of the same molecule?
A: inhibition relative to placebo control

Q: What about the “tumor volume over time” value (Panc2 cells; bis RvE1 Mg-di-lysinate 300 ug/kg SC Q7D + anti-CTLA-4 (4 mg/kg i.p first dose, 2 mg/kg i.p Q3D), p<0.001) of the same molecule?
A: significant inhibition related to both placebo and bis RvE1 Mg-di-lysinate alone

Q: What about the “tumor volume over time” value (Panc2 cells; monotherapy, 300 ug/kg, SC, Q7D) of the same molecule?
A: significant inhibition as monotherapy compared to placebo

Q: And the “inhibition compared to anti-PD1 monotherapy” value (B16F10 cells; double combination of bis RvE1 Mg-di-lysinate 300 ug/kg SC Q6D and anti-PD1 8 mg/kg i.p. Q3D, p<0.05)?
A: 54%

Q: What about the “efficacy of LTD dosing” value (B16F10 cells; monotherapy, 300 ug/kg, SC, Q6D) of the same molecule?
A: effective as monotherapy

Q: And the “tumor growth inhibition compared to anti-CTLA-4 monotherapy” value (B16F10 cells; [1])?
A: 71%

Q: What about the “tumor growth inhibition compared to anti-PD1 monotherapy” value (B16F10 cells; [1]) of the same molecule?
A: 87%

Q: What about the “inhibition, tumor volume at day 12 divided by tumor volume at day 0” value (B16F10 cells; triple therapy: bis RvE1 Mg-di-lysinate 300 ug/kg SC Q6D + anti-CTLA-4 4 mg/kg Q3D + anti-PD1 8 mg/kg i.p. Q3D, p<0.05) of the same molecule?
A: 67%
